The values below come from ChEMBL document CHEMBL3046099, “Effect of reduced risk pesticides on greenhouse vegetable arthropod biological control agents” (2011).

Assay [1] has as its system Eretmocerus eremicus. In words: Toxicity in Eretmocerus eremicus infested green bean leaves assessed as mortality at recommended rate at 48 hr by leaf dip method (reference value: 10%). It is filed as functional.
The test system of assay [2] is Amblyseius swirskii. In words: Toxicity in Typhlodromips swirskii infested green bean leaves assessed as mortality at recommended rate at 48 hr by leaf dip method (reference value: 10%). The format is functional.
For assay [3], the system named is Orius insidiosus. In words: Toxicity in Orius insidiosus infested green bean leaves assessed as mortality at 2 times recommended rate at 48 hr by leaf dip method (reference value: 20%). It is filed as functional.
The subject of assay [4] is Orius insidiosus. Description: Toxicity in Orius insidiosus infested green bean leaves assessed as mortality at recommended rate at 48 hr by leaf dip method (reference value: 20%). The format is functional.
For assay [5], the system named is Amblyseius swirskii. In words: Toxicity in Typhlodromips swirskii infested green bean leaves assessed as mortality at 2 times recommended rate at 48 hr by leaf dip method (reference value: 10%). The format is functional.
In assay [6] the test system is Eretmocerus eremicus. In words: Toxicity in Eretmocerus eremicus infested green bean leaves assessed as mortality at 2 times of recommended rate at 48 hr by leaf dip method (reference value: 10%). The format is functional.
Assay [7] relates to Eretmocerus eremicus. Description: Toxicity in Eretmocerus eremicus infested cucumber leaves assessed as mortality at recommended rate after 15 days under green house condition (reference value: 30%). It is filed as functional, organism-based.

In general, mortality refers to the share of the test organisms that died. On to `CNC(=O)c1cc(Cl)cc(C)c1NC(=O)c1cc(Br)nn1-c1ncccc1Cl` [CHLORANTRANILIPROLE], for which the mortality with Eretmocerus eremicus [1] came out at 0%; in the assay on Amblyseius swirskii [2], 15.8%; in the assay on Orius insidiosus [3], 16%; in the assay on Orius insidiosus [4], 8%; in the assay on Amblyseius swirskii [5], 14.3%; in the assay with Eretmocerus eremicus [6] it was 0%.

For `CCCCC(C#N)(Cn1cncn1)c1ccc(Cl)cc1` (stereo not given) [MYCLOBUTANIL], the mortality in the assay on Eretmocerus eremicus [1] amounted to 5%; with Amblyseius swirskii [2], 7.5%; in the assay on Amblyseius swirskii [5], 17%; in the assay with Eretmocerus eremicus [6], 5.3%.

On to `O=C([O-])O.[K+]` [POTASSIUM BICARBONATE], for which the mortality came to 2.5% in the assay on Eretmocerus eremicus [1], 19.8% in the assay on Amblyseius swirskii [2], 8.8% with Amblyseius swirskii [5] and 2.5% with Eretmocerus eremicus [6].

With METAFLUMIZONE, the mortality in the assay on Eretmocerus eremicus [1] is 0%; in the assay on Amblyseius swirskii [2], 14.5%; in the assay on Eretmocerus eremicus [7], 4.4%; in the assay on Orius insidiosus [4], 69%; in the assay on Amblyseius swirskii [5] it was 8.8%; in the assay with Eretmocerus eremicus [6], 0%.
